# Laboratory results from patent US8563715B2, “Pyrimidine derivative having cell protecting effect and uses thereof” (Zenyaku Kogyo Kabushikikaisha, priority 2008, dated 2013).
# Assays:
# [1] = tested on: astrocyte/neuron co-culture; experiment: Brain cell damage induced by hydrogen peroxide treatment (LDH assay); format: cell-based; settings: Rattus norvegicus, hydrogen peroxide (250 μM), 24 hours, read-out: 50% inhibition concentration against cell damage in entire co-culture system (EC50 value)
# Method: (§1) The brain was removed from 1 to 2 day old Wistar rats (Charles River) or Sprague-Dawley (IGS) rats (Charles River), and the cerebral cortex including the hippocampus was excised under ice cooling. After this cerebral cortex was minced, it was digested with papain solution (9 U/ml) containing DNase I (30 U/ml) at 37 degrees Celsius for 15 minutes, dispersing the cells. After further carrying out mechanical dispersing by pipetting, it was passed through a cell strainer with a pore size of 70 μm, and a cell suspension was obtained. Cells derived from 1.4 cerebra were seeded on 150 mm tissue culture dish (Iwaki Glass), and primary culture was carried out at 37 degrees Celsius and 5% CO2 using a D-MEM medium (Invitrogen) containing 10% heat-inactivated fetal calf serum (JRH). One day after the start of the culture, the nonadherent cells were removed, and the primary cultured astrocytes were obtained by continuing the culture for 4 to 5 further days. The primary cultured astrocytes were dispersed by trypsin treating, suspended in cryopreservation solution, and cryopreserved.
# (§2) After thawing the cryopreserved primary cultured astrocytes, they were seeded on tissue culture plates (Iwaki Glass), and a confluent astrocyte layer was produced by a further 7 days of secondary culture using a D-MEM medium containing 10% heat-inactivated fetal calf serum. Neurons to be used in the co-culture with the astrocyte layer were obtained from fetal rat cerebrum. Briefly, brains were removed from Wistar rats (Charles River) or Sprague-Dawley (IGS) rats (Charles River) of embryonic age 18.5 days, and the cerebral cortex including the hippocampus was excised under ice cooling. After this cerebral cortex was minced, it was digested in papain solution (9 U/ml) containing DNase I (30 U/ml) at 37 degrees Celsius for 15 minutes, dispersing the cells. After further carrying out mechanical dispersing by pipetting, it was passed through a cell strainer with a pore size of 70 μm, and a cell suspension was obtained. This cell suspension was plated at a density of 1.3×10^5 cells/cm^2 on the astrocyte layer, and a co-culture was carried out using D-MEM/F-12 medium (Invitrogen) containing 10% heat-inactivated fetal calf serum and 5% horse serum (Invitrogen). 2 days after the start of the co-culture, cells were treated for 24 hours with 10 μM cytosine arabinoside in order to suppress the excessive cell proliferation of microglia and the like. 8 to 9 days after the start of the co-culture, cells were used for the test. Additionally, using one portion of the cells, immunofluorescent staining and nuclear staining was carried out with astrocyte recognizing antibodies (anti-GFAP) and neuron recognizing antibodies (anti-MAP2), in order to confirm that the present culture system is a co-culture system of astrocytes and neurons.
# (§3) An astrocyte/neuron co-culture cultured on a 96 well plate was used in the test. A predetermined concentration of the test substance and hydrogen peroxide (250 μM) was simultaneously added to the cell culture in each well with continuing cultivation, and analysis was done 24 hours after this treatment. Using an LDH Cytotoxicity Detection Kit (Takara Bio), analysis was carried out in accordance with the included instruction manual, and the damage to the entire co-culture system by the hydrogen peroxide treatment and the protective effect (EC 50 value) of the test substance was evaluated. Further, the cell bodies and the neuronal processes of the neurons were observed by microscope, and the neuroprotective effect was evaluated.
# [2] = tested on: neurons in astrocyte/neuron co-culture; experiment: Brain cell damage induced by hydrogen peroxide treatment (neuroprotective effect, microscope observation); format: cell-based; settings: Rattus norvegicus, hydrogen peroxide (250 μM), 24 hours, read-out: Concentration for complete inhibition of neuronal death
# Method: as §1, §2, §3
melting point [°C],Compound,EC50 [1] [µM],EC100 [2] [µM]
149,"CN(C)c1cc(N2CCOCC2)nc(N2CCN(c3ccccc3)CC2)n1 [Compound 2, 4-dimethylamino-6-morpholino-2-(4-phenylpiperazin-1-yl)pyrimidine]",18.4,
,"c1ccc2c(c1)CCN(c1nc(N3CCOCC3)cc(N3CCOCC3)n1)C2 [Compound 6, 4,6-dimorpholino-2-(1,2,3,4-tetrahydro-2H-isoquinolin-2-yl)pyrimidine]",8.24,
,"c1ccc(N2CCN(c3nc(N4CCNCC4)cc(N4CCOCC4)n3)CC2)cc1 [Compound 52, 4-morpholino-2-(4-phenylpiperazin-1-yl)-6-(piperazin-1-yl)pyrimidine]",3.16,30
,"CCCNc1cc(N2CCOCC2)nc(N2CCN(c3ccccc3)CC2)n1 [Compound 56, 4-morpholino-2-(4-phenylpiperazin-1-yl)-6-propylaminopyrimidine]",2.95,10
,"Cc1ccccc1N1CCN(c2nc(N3CCOCC3)cc(N3CCN(c4ccccc4)CC3)n2)CC1 [Compound 61, 2-[4-(2-methylphenyl)piperazin-1-yl]-6-morpholino-4-(4-phenylpiperazin-1-yl)pyrimidine]",6.45,10
,"Nc1c(N2CCOCC2)nc(N2CCOCC2)nc1N1CCC(Cc2ccccc2)CC1 [Compound 67, 5-amino-4-(4-benzylpiperidin-1-yl)-2,6-dimorpholinopyrimidine]",1.78,
,"CN(C)c1nc(N2CCC(Cc3ccccc3)CC2)nc(N2CCOCC2)c1N [Compound 68, 5-amino-2-(4-benzylpiperidin-1-yl)-4-dimethylamino-6-morpholinopyrimidine]",0.86,
,"CC1CCc2cc(F)ccc2N1c1nc(N2CCOCC2)c(N)c(N2CCOCC2)n1 (stereo not drawn) [Compound 71, 5-amino-2-(6-fluoro-2-methyl-1,2,3,4-tetrahydroquinolin-1-yl)-4,6-dimorpholinopyrimidine]",1.96,
,"CC(=O)Nc1c(N2CCOCC2)nc(N2CCOCC2)nc1N1CCC(Cc2ccccc2)CC1 [Compound 78, 5-acetylamino-4-(4-benzylpiperidin-1-yl)-2,6-dimorpholinopyrimidine]",9.75,30
,"N#CC1(c2ccccc2)CCN(c2nc(N3CCOCC3)nc(N3CCOCC3)c2F)CC1 [Compound 115, 4-(4-cyano-4-phenylpiperidin-1-yl)-5-fluoro-2,6-dimorpholinopyrimidine]",0.63,
,"Fc1c(N2CCOCC2)nc(N2CCN(C3CCCCC3)CC2)nc1N1CCOCC1 [Compound 123, 2-(4-cyclohexylpiperazin-1-yl)-5-fluoro-4,6-dimorpholinopyrimidine]",2.98,10
140 to 141,"Fc1ccccc1N1CCN(c2nc(N3CCN(c4ccccc4)CC3)nc(N3CCOCC3)c2F)CC1 [Compound 125, 5-fluoro-4-[4-(2-fluorophenyl)piperazin-1-yl]-6-morpholino-2-(4-phenylpiperazin-1-yl)pyrimidine]",0.56,
131 to 132,"Fc1ccccc1N1CCN(c2nc(N3CCOCC3)c(F)c(N3CCN(c4ccccc4F)CC3)n2)CC1 [Compound 126, 2,4-bis[4-(2-fluorophenyl)piperazin-1-yl]-5-fluoro-6-morpholinopyrimidine]",0.8,
,"Cc1ccccc1N1CCN(c2nc(N3CCOCC3)c(F)c(N3CCN(c4ccccc4)CC3)n2)CC1 [Compound 128, 5-fluoro-2-[4-(2-methylphenyl)piperazin-1-yl]-6-morpholino-4-(4-phenylpiperazin-1-yl)pyrimidine]",0.3,3
,"CCN(CC)c1ccc(CCCCc2nc(N3CCOCC3)c(N)c(N3CCOCC3)n2)cc1 [Compound 145, 5-amino-2-[4-(4-diethylaminophenyl)butyl]-4,6-dimorpholinopyrimidine]",0.67,
,"CN1CCN(c2nc(N3CCCc4ccccc43)nc(N3CCOCC3)c2F)CC1 [Compound 167, 5-fluoro-4-(4-methylpiperazin-1-yl)-6-morpholino-2-(1,2,3,4-tetrahydro-1H-quinolin-1-yl)pyrimidine]",0.28,
,"CN1CCN(c2nc(N3CCOCC3)nc(N3CCN(c4ccccc4)CC3)c2F)CC1 [Compound 171, 5-fluoro-4-(4-methylpiperazin-1-yl)-2-morpholino-6-(4-phenylpiperazin-1-yl)pyrimidine]",0.49,
51 to 52,"Fc1ccccc1N1CCN(c2nc(N3CCNCC3)c(F)c(N3CCOCC3)n2)CC1 [Compound 182, 5-fluoro-2-[4-(2-fluorophenyl)piperazin-1-yl]-4-morpholino-6-(1-piperazinyl)pyrimidine]",,
56 to 57,"Cc1cccc(N2CCN(c3nc(N4CCN(C)CC4)nc(N4CCOCC4)c3F)CC2)c1C [Compound 183, 5-fluoro-2-(4-methylpiperazin-1-yl)-4-morpholino-6-[4-(2,3-xylyl)piperazin-1-yl]pyrimidine]",,
67 to 68,"Cc1cccc(N2CCN(c3nc(N4CCOCC4)c(F)c(N4CCN(C)CC4)n3)CC2)c1C [Compound 184, 5-fluoro-4-(4-methylpiperazin-1-yl)-6-morpholino-2-[4-(2,3-xylyl)piperazin-1-yl]pyrimidine]",,
128 to 129,"CN1CCN(c2nc(N3CCN(c4ccccc4F)CC3)nc(N3CCOCC3)c2F)CC1 [Compound 185, 5-fluoro-2-[4-(2-fluorophenyl)piperazin-1-yl]-4-(4-methylpiperazin-1-yl)-6-morpholinopyrimidine]",,
67 to 68,"Cc1cccc(N2CCN(c3nc(N4CCOCC4)nc(N4CCN(C)CC4)c3F)CC2)c1C [Compound 186, 5-fluoro-4-(4-methylpiperazin-1-yl)-2-morpholino-6-[4-(2,3-xylyl)piperazin-1-yl]-pyrimidine]",,
70 to 71,"Fc1c(N2CCNCC2)nc(N2CCN(c3ccccc3Cl)CC2)nc1N1CCOCC1 [Compound 189, 2-[4-(2-chlorophenyl)piperazin-1-yl]-5-fluoro-4-morpholino-6-(1-piperazinyl)pyrimidine]",,
127 to 128,"Cc1cccc(N2CCN(c3nc(N4CCN(Cc5ccncc5)CC4)nc(N4CCOCC4)c3F)CC2)c1C [Compound 191, 5-fluoro-4-morpholino-2-[4-(4-pyridinylmethyl)piperazin-1-yl]-6-[4-(2,3-xylyl)piperazin-1-yl]-pyrimidine]",0.73,
77 to 78,"Cc1cccc(N2CCN(c3nc(N4CCN(Cc5ccc(N)cc5)CC4)nc(N4CCOCC4)c3F)CC2)c1C [Compound 194, 2-[4-(4-aminobenzyl)piperazin-1-yl]-5-fluoro-4-morpholino-6-[4-(2,3-xylyl)piperazin-1-yl]pyrimidine]",,

Compound,melting point [°C],EC50 [1] [µM],EC100 [2] [µM]
"Cc1cccc(N2CCN(c3nc(N4CCN(C(=O)OC(C)(C)C)CC4)nc(N4CCOCC4)c3F)CC2)c1C [Compound 177, 2-(4-tert-butoxycarbonylpiperazin-1-yl)-5-fluoro-4-morpholino-6-[4-(2,3-xylyl)piperazin-1-yl]pyrimidine]",81 to 82,,
"CC(C)(C)OC(=O)N1CCN(c2nc(N3CCN(c4ccccc4F)CC3)nc(N3CCOCC3)c2F)CC1 [Compound 181, 4-(4-tert-butoxycarbonylpiperazin-1-yl)-5-fluoro-2-[4-(2-fluorophenyl)piperazin-1-yl]-6-morpholinopyrimidine]",137 to 138,,
"CC(C)(C)OC(=O)N1CCN(c2nc(N3CCN(c4ccccc4Cl)CC3)nc(N3CCOCC3)c2F)CC1 [Compound 188, 4-(4-tert-butoxycarbonylpiperazin-1-yl)-2-[4-(2-chlorophenyl)piperazin-1-yl]-5-fluoro-6-morpholinopyrimidine]",75 to 76,,
"Cc1cccc(N2CCN(c3nc(N4CCN(Cc5ccc(NC(=O)OC(C)(C)C)cc5)CC4)nc(N4CCOCC4)c3F)CC2)c1C [Compound 193, 2-[4-(4-tert-butoxycarbonylaminobenzyl)piperazin-1-yl]-5-fluoro-4-morpholino-6-[4-(2,3-xylyl)piperazin-1-yl]pyrimidine]",104 to 105,,
